Here are results for two compounds from PMC6604316 (Virology Journal, 2019).

Where two headings read alike, the source gives them in different places.

In assay [1] the target is NA of A/Texas/12/2007 (H3N2 119E) (Influenza A virus (A/Texas/12/2007(H3N2)), UniProt D1FVK3). As to the kind of experiment: biochemical. Type of assay: biochemical.
The subject of assay [2] is NA protein of LPAI H7N9 virus, 292 K. As to conditions: cited from earlier work.

Consider oseltamivir carboxylate, for which the IC50 in assay [1] (read-out: Mean IC50 (nM) ± SD) was determined as 0.12 ± 0.01 nM. Besides, in assay [2], the “fold increase in the IC50” value is on record as “more than 1000 fold”.

Consider `CC(=O)N[C@H]1[C@H]([C@H](O)[C@H](O)CO)OC(C(=O)O)=C[C@@H]1N=C(N)N` [Zanamivir, zanamivir], for which, in assay [1], the IC50 was 1.71 ± 0.63 nM. In addition, the “fold increase in the IC50” value in assay [2] is reported as 67 fold.

Broadly, the IC50 is the concentration that inhibits the measured activity by half.
